The values below come from patent publication US11866450B2, “Modulators of Cystic Fibrosis Transmembrane Conductance regulator, pharmaceutical compositions, methods of treatment, and process for making the modulators” (priority 2018, dated 2024).

Each structure is given as a SMILES string. Several values for one entry are separate records, joined by “and”; a condition that tells them apart may be missing. Equal values may be shown once. Read-outs that look alike come from different tables or passages of the source.

For data set [1] the following is noted: snar bond, DMSO.
The target of data set [2] is CFTR-mediated chloride transport (Homo sapiens, UniProt P13569). The format is cell-based. To be noted: enteroid cells incubated with test compound 18-24 hours, acute 10 μM forskolin and 300 nM Compound III; for Max. Activity: % of chloride transport with 3 μM Compound A, 3 μM Compound II and 300 nM acute Compound III triple combination control. Summed up: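 Human intestinal enteroid cells incubated with compound 18–24 h at 37° C., then membrane potential dye (FLIPR) read 15 min after chloride-free stimulation with 10 μM forskolin, 100 μM IBMX and 300 nM Compound III. AUC expressed as % of triple-combination control (3 μM Compound A, 3 μM Compound II, 300 nM Compound III).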
Chain of CFTR-mediated chloride transport (P13569 whole entry, looked up): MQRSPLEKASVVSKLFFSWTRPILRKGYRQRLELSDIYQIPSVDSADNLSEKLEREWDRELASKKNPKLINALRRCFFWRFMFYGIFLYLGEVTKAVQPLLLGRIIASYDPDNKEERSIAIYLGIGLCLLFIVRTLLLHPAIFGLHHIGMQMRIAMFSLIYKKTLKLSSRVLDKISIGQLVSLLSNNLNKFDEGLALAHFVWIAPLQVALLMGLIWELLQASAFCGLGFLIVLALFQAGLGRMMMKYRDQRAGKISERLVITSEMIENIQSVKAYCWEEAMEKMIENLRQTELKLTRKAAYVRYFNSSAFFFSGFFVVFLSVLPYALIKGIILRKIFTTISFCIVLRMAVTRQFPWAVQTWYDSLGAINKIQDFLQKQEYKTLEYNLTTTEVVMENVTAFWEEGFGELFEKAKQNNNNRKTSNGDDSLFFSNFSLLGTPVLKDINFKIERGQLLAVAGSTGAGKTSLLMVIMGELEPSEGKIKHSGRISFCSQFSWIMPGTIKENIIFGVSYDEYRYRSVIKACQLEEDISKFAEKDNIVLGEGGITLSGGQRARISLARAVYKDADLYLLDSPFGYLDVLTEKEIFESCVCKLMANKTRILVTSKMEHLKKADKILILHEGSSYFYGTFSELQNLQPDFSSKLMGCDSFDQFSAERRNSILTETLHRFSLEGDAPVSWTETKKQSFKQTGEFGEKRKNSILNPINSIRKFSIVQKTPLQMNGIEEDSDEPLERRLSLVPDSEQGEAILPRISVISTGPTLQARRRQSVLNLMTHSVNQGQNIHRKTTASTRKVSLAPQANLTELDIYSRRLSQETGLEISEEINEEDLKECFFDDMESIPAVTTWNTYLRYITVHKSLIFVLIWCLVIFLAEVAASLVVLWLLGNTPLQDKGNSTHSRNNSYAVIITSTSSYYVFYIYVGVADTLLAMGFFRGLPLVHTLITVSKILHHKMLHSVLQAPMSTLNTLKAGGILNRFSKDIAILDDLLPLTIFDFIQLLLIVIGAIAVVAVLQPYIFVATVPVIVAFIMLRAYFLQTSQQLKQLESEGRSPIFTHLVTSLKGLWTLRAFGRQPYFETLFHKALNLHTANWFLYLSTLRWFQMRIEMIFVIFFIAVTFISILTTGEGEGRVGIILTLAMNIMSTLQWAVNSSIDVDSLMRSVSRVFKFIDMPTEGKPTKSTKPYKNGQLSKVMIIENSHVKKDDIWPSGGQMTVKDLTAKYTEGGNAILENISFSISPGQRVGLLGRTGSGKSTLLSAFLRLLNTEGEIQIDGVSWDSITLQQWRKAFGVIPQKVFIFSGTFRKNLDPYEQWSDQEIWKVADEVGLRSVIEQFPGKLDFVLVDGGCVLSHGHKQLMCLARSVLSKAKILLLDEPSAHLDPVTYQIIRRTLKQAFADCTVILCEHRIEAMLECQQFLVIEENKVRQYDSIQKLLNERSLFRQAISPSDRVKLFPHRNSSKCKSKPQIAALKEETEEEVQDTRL

In turn, `CC1(C)C[C@@H]2CCCOc3cccc(c3)S(=O)(=O)NC(=O)c3ccc(-n4ccc(OCCC5(C(F)(F)F)CC5)n4)nc3N1C2` [Compound 77, (14S)-12,12-Dimethyl-8-(3-{2-[1-(trifluoromethyl)cyclopropyl]ethoxy}-1H-pyrazol-1-yl)-18-oxa-2λ^6-thia-3,9,11-triazatetracyclo[17.3.1.111,14.05,10]tetracosa-1(23),5(10),6,8,19,21-hexaene-2,2,4-trione] came in with a ring closure, yield after HPLC in data set [1] (from CC1(C)C[C@H](CCCOc2cccc(S(=O)(=O)NC(=O)c3ccc(-n4ccc(OCCC5(C(F)(F)F)CC5)n4)nc3Cl)c2)CN1, 15-membered ring, K2CO3/CsF/3A MS, 62.9 mM, 150.0 °C, 20.0 h, 2 steps) of 20%. In data set [2], the EC50 was less than 1000 nM and the “Max. Activity” value is “+++ (+++ is >60%)”.
As for `CC1(C)CC2CCCCc3cccc(n3)S(=O)(=O)NC(=O)c3ccc(-n4ccc(OCCC5(C(F)(F)F)CC5)n4)nc3N1C2` (stereo not drawn) [Compound 78, 12,12-dimethyl-8-(3-{2-[1-(trifluoromethyl)cyclopropyl]ethoxy}-1H-pyrazol-1-yl)-2λ^6-thia-3,9,11,23-tetraazatetracyclo[17.3.1.111,14.05,10]tetracosa-1(23),5,7,9,19,21-hexaene-2,2,4-trione], in data set [1] (from CC(C)(C)OC(=O)N1CC(CCCCc2cccc(S(=O)(=O)NC(=O)c3ccc(-n4ccc(OCCC5(C(F)(F)F)CC5)n4)nc3Cl)n2)CC1(C)C, 15-membered ring, HCl (Boc off), K2CO3/CsF/3A MS, 65.0 mM, 150.0 °C, 2 steps), the ring closure, yield after HPLC amounted to 37%. Also, in data set [2], the half-maximal effective concentration (EC50) was less than 1000 nM and the “Max. Activity” value is recorded as “+++ (+++ is >60%)”.
The molecule `CC1(C)CC2CCCOc3ccc(cn3)S(=O)(=O)NC(=O)c3ccc(-n4ccc(OCCC5(C(F)(F)F)CC5)n4)nc3N1C2` (stereo not drawn) [Compound 90, 12,12-dimethyl-8-(3-{2-[1-(trifluoromethyl)cyclopropyl]ethoxy}-1H-pyrazol-1-yl)-18-oxa-2λ^6-thia-3,9,11,20-tetraazatetracyclo[17.2.2.111,14.05,10]tetracosa-1(21),5(10),6,8,19,22-hexaene-2,2,4-trione] came in with a ring closure, yield after HPLC in data set [1] (from CC(C)(C)OC(=O)N1CC(CCCOc2ccc(S(=O)(=O)NC(=O)c3ccc(-n4ccc(OCCC5(C(F)(F)F)CC5)n4)nc3Cl)cn2)CC1(C)C, 16-membered ring, HCl (Boc off), K2CO3/CsF/3A MS, 61.4 mM, 155.0 °C, 2 steps) of 7%. Besides, in data set [2], the concentration giving a half-maximal response (EC50) is less than 1000 nM and the “Max. Activity” value is given as “++ (++ is 30-60%)”.
Molecule `CC1(C)CC2CCCNc3cc(ccn3)S(=O)(=O)NC(=O)c3ccc(-n4ccc(OCCC5(C(F)(F)F)CC5)n4)nc3N1C2` (stereo not drawn) [Compound 93, 12,12-dimethyl-8-(3-{2-[1-(trifluoromethyl)cyclopropyl]ethoxy}-1H-pyrazol-1-yl)-2λ^6-thia-3,9,11,18,20-pentaazatetracyclo[17.3.1.111,14.05,10]tetracosa-1(22),5,7,9,19(23),20-hexaene-2,2,4-trione] registered a ring closure, yield after HPLC in data set [1] (from CC(C)(C)OC(=O)N1CC(CCCNc2cc(S(=O)(=O)NC(=O)c3ccc(-n4ccc(OCCC5(C(F)(F)F)CC5)n4)nc3Cl)ccn2)CC1(C)C, 15-membered ring, TFA (Boc off), CsF/K2CO3/3A MS, 26.0 mM, 130.0 °C, 2 steps) of 30%. Also, in data set [2], the half-maximal effective concentration (EC50) is less than 1000 nM and the “Max. Activity” value is on record as “+++ (+++ is >60%)”.
Turning to `Cc1ccc2nc1OCCC[C@@H]1CN(c3nc(-n4ccc(OCCC5(C(F)(F)F)CC5)n4)ccc3C(=O)NS2(=O)=O)C(C)(C)C1` [Compound 109, (14S)-12,12,20-Trimethyl-8-(3-{2-[1-(trifluoromethyl)cyclopropyl]ethoxy}-1H-pyrazol-1-yl)-18-oxa-2λ^6-thia-3,9,11,23-tetraazatetracyclo[17.3.1.111,14.05,10]tetracosa-1(23),5(10),6,8,19,21-hexaene-2,2,4-trione], the ring closure, yield after HPLC in data set [1] (from Cc1ccc(S(=O)(=O)NC(=O)c2ccc(-n3ccc(OCCC4(C(F)(F)F)CC4)n3)nc2Cl)nc1OCCC[C@@H]1CN(C(=O)OC(C)(C)C)C(C)(C)C1, 15-membered ring, HCl (Boc off), K2CO3/CsF/3A MS, 62.8 mM, 140.0 °C, 2 steps) was 32%. In addition, in data set [2], the EC50 is less than 1000 nM and the “Max. Activity” value is recorded as “++ (++ is 30-60%)”.
`Cc1nn2cc1S(=O)(=O)NC(=O)c1ccc(-n3ccc(OCCC4(C(F)(F)F)CC4)n3)nc1N1C[C@@H](CCC2)CC1(C)C` [Compound 112, (18S)-12,20,20-trimethyl-4-(3-{2-[1-(trifluoromethyl)cyclopropyl]ethoxy}-1H-pyrazol-1-yl)-10λ^6-thia-1,3,9,13,14-pentaazatetracyclo[16.2.1.111,14.02,7]docosa-2,4,6,11(22),12-pentaene-8,10,10-trione] returned a ring closure, yield after HPLC in data set [1] (from Cc1nn(CCC[C@@H]2CNC(C)(C)C2)cc1S(=O)(=O)NC(=O)c1ccc(-n2ccc(OCCC3(C(F)(F)F)CC3)n2)nc1Cl, 14-membered ring, K2CO3/CsF, 37.8 mM, 160.0 °C) of 26%. For the same molecule, in data set [2], the EC50 was less than 1000 nM and the “Max. Activity” value was “++ (++ is 30-60%)”.
In data set [1] (from CC(C)(C)OC(=O)N1CC(CCCCNc2ccc(S(=O)(=O)NC(=O)c3ccc(-n4ccc(OCCC5(C(F)(F)F)CC5)n4)nc3Cl)nc2)CC1(C)C, 17-membered ring, K2CO3/CsF/3A MS, 110.5 mM, 150.0 °C, 2 steps), `CC1(C)CC2CCCCNc3ccc(nc3)S(=O)(=O)NC(=O)c3ccc(-n4ccc(OCCC5(C(F)(F)F)CC5)n4)nc3N1C2` (stereo not drawn) [Compound 123, 12,12-Dimethyl-8-(3-{2-[1-(trifluoromethyl)cyclopropyl]ethoxy}-1H-pyrazol-1-yl)-2λ^6-thia-3,9,11,19,22-pentaazatetracyclo[18.2.2.111,14.05,10]pentacosa-1(22),5(10),6,8,20,23-hexaene-2,2,4-trione] came in with a ring closure, yield after HPLC of 4%. For the same molecule, in data set [2], the EC50 is less than 1000 nM and the “Max. Activity” value is recorded as “+++ (+++ is >60%)”.
`Cc1ccc2nc1S(=O)(=O)NC(=O)c1ccc(-n3ccc(OCCC4(C(F)(F)F)CC4)n3)nc1N1CC(CCCN2)CC1(C)C` (stereo not drawn) [Compound 129, 12,12,22-Trimethyl-8-(3-{2-[1-(trifluoromethyl)cyclopropyl]ethoxy}-1H-pyrazol-1-yl)-2λ^6-thia-3,9,11,18,23-pentaazatetracyclo[17.3.1.111,14.05,10]tetracosa-1(23),5(10),6,8,19,21-hexaene-2,2,4-trione] had a ring closure, yield after HPLC in data set [1] (from Cc1ccc(NCCCC2CN(C(=O)OC(C)(C)C)C(C)(C)C2)nc1S(=O)(=O)NC(=O)c1ccc(-n2ccc(OCCC3(C(F)(F)F)CC3)n2)nc1Cl, 15-membered ring, K2CO3/CsF/3A MS, 79.1 mM, 140.0 °C, 2 steps) of 34%. Also, in data set [2], the EC50 was less than 1000 nM and the “Max. Activity” value was “+++ (+++ is >60%)”.
As for `CC1(C)CC2CCCCNc3ccc(cn3)S(=O)(=O)NC(=O)c3ccc(-n4ccc(OCCC(C5CC5)C5CC5)n4)nc3N1C2` (stereo not drawn) [Compound 130, 8-[3-(3,3-Dicyclopropylpropoxy)-1H-pyrazol-1-yl]-12,12-dimethyl-2λ^6-thia-3,9,11,19,21-pentaazatetracyclo[18.2.2.111,14.05,10]pentacosa-1(22),5,7,9,20,23-hexaene-2,2,4-trione], the ring closure, yield after HPLC in data set [1] (from CC(C)(C)OC(=O)N1CC(CCCCNc2ccc(S(=O)(=O)NC(=O)c3ccc(-n4ccc(OCCC(C5CC5)C5CC5)n4)nc3Cl)cn2)CC1(C)C, 17-membered ring, K2CO3/CsF/3A MS, 107.7 mM, 160.0 °C, 2 steps) amounted to 15%. Moreover, in data set [2], the EC50 was less than 1000 nM and the “Max. Activity” value is “+++ (+++ is >60%)”.
In the case of `CC1(C)CCC2CCCNc3cccc(n3)S(=O)(=O)NC(=O)c3ccc(-n4ccc(OCCC(C5CC5)C5CC5)n4)nc3N21` (stereo not drawn) [Compound 131, 8-[3-(3,3-Dicyclopropylpropoxy)-1H-pyrazol-1-yl]-12,12-dimethyl-2λ^6-thia-3,9,11,19,24-pentaazatetracyclo[18.3.1.05,10.011,15]tetracosa-1(23),5(10),6,8,20(24),21-hexaene-2,2,4-trione], the ring closure, yield after HPLC in data set [1] (from CC(C)(C)OC(=O)N1C(CCCNc2cccc(S(=O)(=O)NC(=O)c3ccc(-n4ccc(OCCC(C5CC5)C5CC5)n4)nc3Cl)n2)CCC1(C)C, 14-membered ring, K2CO3/CsF/3A MS, 94.1 mM, 150.0 °C, 2 steps) amounted to 39%. For the same molecule, in data set [2], the 50% effective concentration (EC50) is less than 1000 nM and the “Max. Activity” value is reported as “++ (++ is 30-60%)”.
Regarding `CC1(C)CC2CCCn3ccc(n3)S(=O)(=O)NC(=O)c3ccc(-n4ccc(OCCC(C5CC5)C5CC5)n4)nc3N1C2` (stereo not drawn) [Compound 141, 4-[3-(3,3-Dicyclopropylpropoxy)-1H-pyrazol-1-yl]-20,20-dimethyl-10λ^6-thia-1,3,9,14,22-pentaazatetracyclo[16.2.1.111,14.02,7]docosa-2,4,6,11(22),12-pentaene-8,10,10-trione], in data set [1] (from CC(C)(C)OC(=O)N1CC(CCCn2ccc(S(=O)(=O)NC(=O)c3ccc(-n4ccc(OCCC(C5CC5)C5CC5)n4)nc3Cl)n2)CC1(C)C, 14-membered ring, K2CO3/CsF/3A MS, 66.2 mM, 150.0 °C, 2 steps), the ring closure, yield after HPLC was 23% and 22%. Also, in data set [2], the concentration giving a half-maximal response (EC50) was less than 1000 nM and the “Max. Activity” value is on record as “+++ (+++ is >60%)”.
`CC1(C)CCC2CCCOc3cccc(n3)S(=O)(=O)NC(=O)c3ccc(-n4ccc(OCCC5(C(F)(F)F)CC5)n4)nc3N21` (stereo not drawn) [Compound 147, 12,12-dimethyl-8-(3-{2-[1-(trifluoromethyl)cyclopropyl]ethoxy}-1H-pyrazol-1-yl)-19-oxa-2λ^6-thia-3,9,11,24-tetraazatetracyclo[18.3.1.05,10.011,15]tetracosa-1(24),5(10),6,8,20,22-hexaene-2,2,4-trione] had a ring closure, yield after HPLC in data set [1] (from CC(C)(C)OC(=O)N1C(CCCOc2cccc(S(=O)(=O)NC(=O)c3ccc(-n4ccc(OCCC5(C(F)(F)F)CC5)n4)nc3Cl)n2)CCC1(C)C, 14-membered ring, K2CO3/CsF/3A MS, 66.1 mM, 140.0 °C, 2 steps) of 5%. Moreover, in data set [2], the 50% effective concentration (EC50) was less than 1000 nM and the “Max. Activity” value is on record as “++ (++ is 30-60%)”.

Usually EC50 stands for the concentration giving half of the maximal effect.
